In data set [1] the test system is HIV-1. Set-up: method as in PMID 10985087. As to conditions: cited from earlier work.
Data set [2] is described as follows: Cytotoxicity assay (MTT method). The format is cell-based. As to conditions: human, concentration with half maximal inhibition on growth and survival of HEp-2 cells, mean (SD), n = 3. How it is done:
(§1) Human larynx epidermoid carcinoma cell line (HEp-2, CCL-23) and RSV (long strain, VR-26) were purchased from the American Type Culture Collection (ATCC, USA). The cells were grown in Eagle's minimum essential medium (EMEM) (Gibco, USA) supplemented with 10% fetal bovine serum (FBS) (Gibco, USA), 25 μg/ml gentamicin (Sigma, USA) and […] L-glutamine (Sigma, USA) (growth medium). Virus-infected cells were maintained in EMEM with 1% FBS, 25 μg/ml gentamicin and […] L-glutamine (maintenance medium). All the cells were cultured at 37°C in a humidified atmosphere supplied with 5% CO2. Virus titers were determined by the 50% tissue culture infective dose (TCID50) method.
Cell viability was tested by the 3-(4,5-dimethylthiazol-2-yl)-2,5-diphenyl tetrazolium bromide (MTT) method as described in previous study. Briefly, 100 μl of two-fold diluted samples were added to a 96-well plate containing confluent cell monolayer in triplicates while the dilution medium without the sample was the control. After 72 hours of incubation, 12 μl of the MTT solution (5 mg/ml in phosphate buffered saline) was added to each well. The trays were further incubated for four hours for the formation of blue formazan. After the supernatant was removed, the blue formazan was solubilized in 100 μl DMSO and the optical density (OD) was measured at 570 nm with a microplate reader.

The test system of data set [3] is RSV (long strain, VR-26). Kind of data set: CPE reduction assay, in vitro antiviral activity against RSV. Particulars: for anti-RSV activity (in words): in vitro; for IC50: human respiratory syncytial virus, concentration that reduced 50% of CPE in respect to virus control, RSV in HEp-2 cells, mean (SD), n = 3; for SI: ratio of CC50 to IC50. The format is cell-based, respiratory syncytial virus. How it is done: as §1
CPE reduction assay was adopted for screening the in vitro antiviral activity as described in the previous study. Briefly, 0.1 ml of 100 TCID50 virus suspension and serial two-fold dilutions of the tested samples were added simultaneously to confluent cell monolayers in a 96-well plate. Virus suspension and maintenance medium without samples were added as the virus control and cell control, respectively. The plates were incubated at 37°C in a humidified CO2 atmosphere for 3-5 days. The virus-induced CPE was scored against the virus control under a light microscope. Ribavirin (Sigma, USA) was used as positive control in this experiment.

Consider nine compounds from paper PMC2907371, “Antiviral biflavonoids from Radix Wikstroemiae (Liaogewanggen)” (Chinese Medicine, 2010).

Regarding `COc1cc(C[C@@H]2COC(=O)[C@@]2(O)Cc2ccc(O)c(OC)c2)ccc1O` [(+)-nortrachelogenin], the “activity against HIV-1 in vitro (in words)” value in data set [1] is “moderately active”.

`O=C1c2c(O)cc(O)cc2O[C@H](c2ccc(O)cc2)[C@H]1[C@@H]1C(=O)c2c(O)cc(O)cc2O[C@@H]1c1ccc(O)cc1` [Compound I, neochamaejasmin B] displayed a CC50 at 72 h in data set [2] of 29.9 µM. In addition, the “anti-RSV activity (in words)” value in data set [3] (CPE reduction assay) is “did not show anti-RSV effect”; in data set [3] (CPE reduction assay, listed as neochamaejasmin B), “did not”. Moreover, in data set [3] (CPE reduction assay, highest concentration tested = maximal non-cytotoxic concentration), the “IC50 (symbol)” value is reported as “-”.

Consider `O=C1C=C2O[C@@H](c3ccc(O)cc3)[C@]3(O)C(=O)c4c(O)cc(O)cc4O[C@]23C2=C1C[C@H](O)[C@@H](c1ccc(O)cc1)O2` [Compound II, genkwanol B], for which half-maximal cytotoxicity in data set [2] (CC50 at 72 h) was put at 106 µM. For the same compound, in data set [3] (CPE reduction assay), the “anti-RSV activity (in words)” value is “potent anti-RSV activity”. In addition, in data set [3], it took 9.6 µM to reach half-maximal inhibition (IC50) and the SI is on record as 11.0.

As for `O=C1C=C2O[C@H](c3ccc(O)cc3)[C@@]3(O)C(=O)c4c(O)cc(O)cc4O[C@@]23C2=C1C[C@H](O)[C@@H](c1ccc(O)cc1)O2` [Compound III, genkwanol C], in data set [2], half-maximal cytotoxicity (CC50 at 72 h) was put at 145 µM. Further, the “anti-RSV activity (in words)” value in data set [3] (CPE reduction assay) is reported as “potent anti-RSV activity”. Besides, in data set [3], half-maximal inhibition (IC50) required 6.6 µM and the SI was found to be 21.9.

With `O=C1C=C2O[C@H](c3ccc(O)cc3)[C@@]3(O)C(=O)c4c(O)cc(O)cc4O[C@@]23C2=C1C[C@@H](O)[C@@H](c1ccc(O)cc1)O2` [Compound IV, stelleranol], in data set [2], the CC50 at 72 h came to 162 µM. Further, the “anti-RSV activity (in words)” value in data set [3] (CPE reduction assay) is “potent anti-RSV activity”. Moreover, in data set [3], the IC50 turned out to be 10.2 µM and the SI was 15.8.

With `NC(=O)c1ncn([C@@H]2O[C@H](CO)[C@@H](O)[C@H]2O)n1` [Ribavirin, reference compound], in data set [2], the CC50 at 72 h was found to be 256 µM. In data set [3], inhibition was half-maximal at 11.9 µM (IC50) and the SI was determined as 21.6.

For the compound `O=C(c1c(O)cc(O)cc1O)c1c(-c2ccc(O)cc2)oc2cc(O)c3c(c12)O[C@H](c1ccc(O)cc1)[C@@H](O)C3` [daphnodorin B], in data set [1], the “activity against HIV-1 in vitro (in words)” value was “moderately active”.

With `O=C1c2c(O)cc(O)cc2O[C@@]12c1c(cc(O)c3c1O[C@H](c1ccc(O)cc1)[C@@H](O)C3)O[C@@H]2c1ccc(O)cc1` [genkwanol A], the “activity against HIV-1 in vitro (in words)” value in data set [1] is “moderately active”.

`O=c1c(-c2c(O)cc(O)c3c2O[C@H](c2ccc(O)cc2)[C@@H](O)C3)c(-c2ccc(O)cc2)oc2cc(O)cc(O)c12` [wikstrol B]: the “activity against HIV-1 in vitro (in words)” value in data set [1] is “moderately active”.
